Where two headings read alike, the source gives them in different places.
Biological target: T1, mouse cGAS (Mus musculus, UniProt Q8C6L5)
T1 construct: recombinant full-length mouse cGAS in reaction buffer; His6-SUMO (N, cleaved yes); made in house; host or cells: E. coli BL21(DE3) RIL
Assay: RapidFire mass spectrometry (RF-MS) cGAS enzymatic assay, cGAMP product formation
Format: biochemical
Conditions: for IC50: read-out: IC50; for effect of structural modification on cGAS inhibitory potency: compared with RU.365
Protocol: The liquid was collected at the well bottom using centrifugation for 30 s at 180×g. […] Plates were centrifuged for 30 s at 180×g to collect all liquid at the bottom of the wells. […] The reaction was stopped by addition of 65 µl of 0.5% (v/v) formic acid per well. The plates were centrifuged for 30 s at 180×g and sealed with a Velocity11 PlateLoc thermal plate sealer.
The solvent used for loading/washing process was an aqueous solution of 5 mM ammonium acetate, pH 10. […] Each sample of approximately 35 µl were aspirated from a 384-well plate and separated using a Graphitic carbon Type D cartridge. After each sample was loaded onto the cartridge it was washed for 4 s at 1.5 ml min^−1 using the aqueous solvent. ATP, GTP and cGAMP were eluted for 5 s using the organic solvent at a flow rate of 1.5 ml min^−1. The cartridge was then re-equilibrated with the aqueous solvent for 5 s at a flow rate of 1.5 ml min^−1. All samples were analyzed using a negative ionization mode in the mass spectrometer, with a gas temperature of 350 °C, nebulizer pressure of 35 psig, gas flow rate of 15 l min^−1. […] The Agilent RapidFire Integrator software was used to calculate the area under the curve (AUC) of the extracted ion counts for each analyte. Data points represent values of product formation. Catalytic rates expressed as percent product formation were calculated using the AUC of cGAMP and using the AUC’s of ATP and GTP to normalize for variations in the capacity of the solid phase extraction column during a screening run, as shown in the following formula: product formation (%) = [(AUCcGAMP × 100)/(AUCcGAMP + ½ AUCATP + ½ AUCGTP)].
To determine the percent inhibition of mouse cGAS the data was normalized against the positive control (column 24) and negative control (column 23). […] The quality of the screen was assessed by Z′ factor[57] calculated as follows: Z′ = 1−[3∗(standard deviation positive control + standard deviation negative control)/(average positive control—average negative control)].

[1] = Supplementary Table 4, analogs of RU166365, m-cGAS inhibition
[2] = Supplementary Table 3, analogs more potent than RU166365

T1 sequence (Q8C6L5 whole entry): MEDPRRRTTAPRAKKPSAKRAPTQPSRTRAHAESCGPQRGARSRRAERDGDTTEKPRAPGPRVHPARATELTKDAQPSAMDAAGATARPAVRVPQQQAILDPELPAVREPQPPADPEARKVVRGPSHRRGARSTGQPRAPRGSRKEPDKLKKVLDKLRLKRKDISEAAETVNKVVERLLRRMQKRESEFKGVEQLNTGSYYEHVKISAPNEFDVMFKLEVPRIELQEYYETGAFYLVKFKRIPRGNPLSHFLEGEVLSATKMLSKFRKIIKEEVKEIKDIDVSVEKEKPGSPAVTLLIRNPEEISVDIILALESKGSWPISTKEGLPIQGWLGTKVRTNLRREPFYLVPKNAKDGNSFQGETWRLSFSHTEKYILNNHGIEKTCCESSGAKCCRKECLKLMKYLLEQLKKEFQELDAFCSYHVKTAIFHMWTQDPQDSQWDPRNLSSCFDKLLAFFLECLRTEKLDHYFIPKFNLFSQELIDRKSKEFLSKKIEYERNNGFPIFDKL

Row | SMILES | IC50 [1] [µM] | further results
1 | Cc1nn(-c2nc3ccccc3s2)c(O)c1C1NC(=O)c2ccccc21 (stereo not shown) [RU320466] | > 25 | –
2 | Cc1nn(-c2nc3cccc(Br)c3[nH]2)c(O)c1C1OC(=O)c2ccccc21 (stereo not shown) [RU320467] | – | IC50 [2]: 0.38 µM; effect of structural modification on cGAS inhibitory potency: increased inhibitory potency
3 | COc1ccc2c(c1)C(=O)OC2c1c(C)nn(-c2nc3ccccc3[nH]2)c1O (stereo not shown) [RU320468] | – | IC50 [2]: 1.43 µM; effect of structural modification on cGAS inhibitory potency: only minor variations in potency
4 | Cc1nn(-c2nc3ccccc3[nH]2)c(O)c1C1OC(=O)c2cc(Br)ccc21 (stereo not shown) [RU320469] | – | IC50 [2]: 1.32 µM; effect of structural modification on cGAS inhibitory potency: only minor variations in potency
5 | Cc1nn(-c2nc3ncccc3[nH]2)c(O)c1C1OC(=O)c2ccccc21 (stereo not shown) [RU320502] | 11 | –
6 | COC(=O)c1cccc2c1C(=O)OC2c1c(C)nn(-c2nc3ccccc3[nH]2)c1O (stereo not shown) [RU320511] | 6.84 | –
7 | COC(=O)c1ccc2c(c1)C(c1c(C)nn(-c3nc4ccccc4[nH]3)c1O)OC2=O (stereo not shown) [RU320512] | 8.58 | –
8 | COC(=O)c1cccc2c1C(c1c(C)nn(-c3nc4ccccc4[nH]3)c1O)OC2=O (stereo not shown) [RU320513] | > 25 | –
9 | CC(C)c1c(C2OC(=O)c3ccccc32)c(O)nn1-c1nc2ccccc2[nH]1 (stereo not shown) [RU320514] | > 25 | –
10 | CC(C)c1nn(-c2nc3ccccc3[nH]2)c(O)c1C1OC(=O)c2ccccc21 (stereo not shown) [RU320515] | 7.16 | –
11 | CC(=O)N1CCc2c(c(C)nn2-c2nc3ccccc3[nH]2)C1c1ccccc1 (stereo not shown) [RU320517] | > 25 | –
12 | CC(=O)N1CCc2nn(-c3nc4ccccc4[nH]3)c(C)c2C1c1ccccc1 (stereo not shown) [RU320518] | > 25 | –
13 | Cc1nn(-c2nc3cccc(C)c3[nH]2)c(O)c1C1OC(=O)c2ccccc21 (stereo not shown) [RU320519] | – | IC50 [2]: 1.16 µM; effect of structural modification on cGAS inhibitory potency: increased inhibitory potency
14 | Cc1nn(-c2nc3cccc(Cl)c3[nH]2)c(O)c1C1OC(=O)c2ccccc21 (stereo not shown) [RU320520] | – | IC50 [2]: 0.62 µM; effect of structural modification on cGAS inhibitory potency: increased inhibitory potency
15 | COC(=O)Cc1cccc2c1C(=O)OC2c1c(C)nn(-c2nc3ccccc3[nH]2)c1O (stereo not shown) [RU320579] | 2.46 | –
16 | Cc1nn(-c2nc3cccc(C(F)(F)F)c3[nH]2)c(O)c1C1OC(=O)c2ccccc21 (stereo not shown) [RU320581] | 3.3 | –
17 | Cc1nn(-c2nc3cc(Cl)cc(Cl)c3[nH]2)c(O)c1C1OC(=O)c2ccccc21 (stereo not shown) [RU320582] | – | IC50 [2]: 0.12 µM; effect of structural modification on cGAS inhibitory potency: increased inhibitory potency; improvement in potency (relative to RU.365): 17 fold

Continued, in another order:

Row | IC50 [1] [µM] | SMILES | further results
18 | > 25 | COc1cccc2c1C(c1c(C)nn(-c3nc4ccccc4[nH]3)c1O)OC2=O (stereo not shown) [RU320503] | –
19 | 19.6 | Cc1nn(-c2nc3ccccc3[nH]2)c(O)c1C1OC(=O)c2cccc(Br)c21 (stereo not shown) [RU320504] | –
20 | > 25 | Cc1nn(-c2nc3ccccc3[nH]2)c(O)c1C1OC(=O)c2cccc(C(=O)O)c21 (stereo not shown) [RU320516] | –
21 | > 25 | Cc1nn(-c2ncc(-c3ccccc3)[nH]2)c(O)c1C1OC(=O)c2ccccc21 (stereo not shown) [RU320574] | –
22 | 2.35 | Cc1nn(-c2nc3cccc(-c4ccccc4)c3[nH]2)c(O)c1C1OC(=O)c2ccccc21 (stereo not shown) [RU320575] | –
23 | 18 | Cc1nn(-c2nc3ccc(C(=O)O)cc3[nH]2)c(O)c1C1OC(=O)c2ccccc21 (stereo not shown) [RU320577] | –
24 | 3.36 | Cc1nn(-c2nc3ccc(-c4ccccc4)cc3[nH]2)c(O)c1C1OC(=O)c2ccccc21 (stereo not shown) [RU320578] | –

From publication PMC5622107, “Small molecule inhibition of cGAS reduces interferon expression in primary macrophages from autoimmune mice” (Nature Communications, 2017)
